Test results taken from patent publication US4665086A, “Method for minimizing disturbances in circadian rhythms of bodily performance and function” (priority 1983, dated 1987).
Values joined by “and” are separate entries in the source; they are usually repeats but may differ in a detail not shown here. Equal entries are not always repeated. “Also recorded” adds a separate entry of the source. Where two headings read alike, the source gives them in different places.

Columns and labels:
[1] = test system: body temperature rhythm in humans (shift work); experiment: Example 10: Subject F, simulated rapid rotating shift work roster, double blind melatonin vs placebo, rectal temperature; assay type: in vivo, human; conditions: for sleep induction: from diary descriptions
Procedure: The subject was a […] psychology lecturer who had never taken Melatonin before. In order to evaluate the effects of Melatonin on adaptation to rotating shift work conditions the subject undertook three, eight hour phase advances in their sleep-wake/work-rest schedule at six day intervals. Melatonin was administered under double blind conditions on the first phase advance and placebo taken on the second. […] This entrainment was not a secondary consequence of sleep induction. The data can be taken as evidence for Melatonin as an effective chronobiotic for adaptation to shiftwork.
The experiment was designed to incorporate the salient features of a rapidly rotating shift-work schedule combined with aspects of lighting changes encountered on destination arrival after intercontinental jet flight. […] The experimental protocol differed from that normally found in shift work in that the subject had to spend the dark period in bed in an isolation unit irrespective of whether sleepiness was felt or not; whereas, no sleep was allowed during the light period no matter how tired the subject felt. During the light period the subject was free to leave the isolation unit to engage in work or leisure related activities.
The experiment was carried out over the long vacation, the isolated unit being situated half below ground under one of the residential colleges on La Trobe University Campus. The area was, therefore, fairly well buffered against external noise and a ventilation exhaust fan was continuously running, which aided extraneous noise reduction. Windows located high up on the walls of the kitchen alcove and shower/toilet rooms were blacked out. The main sleeping-living room was illuminated by two fluorescent tubes (40 watt) while the alcove and bathroom areas had one, 40 watt, fluorescent light in each. All lights were controlled by a single time clock set to give an LD 16:8 cycle, lights on at 0730 hours during baseline. A bedside lamp was used for reading during the light period. No lighting was allowed during the dark period for any reason. Therefore, events such as quenching of thirst and urination had to take place in total darkness. Temperature of the isolation area was maintained within the range 20°-22° C. throughout the experiment. During stage A and pre-baseline breakfast was ingested between 0800 and 0900, lunch between 1300 and 1400, and dinner between 1800 and 2000. During stages B and C meals and intermeal intervals were scheduled for equivalent times (relative to lights on) to those during stage A.
During stages B and C the subject was instructed to take one capsule just prior to lights off. If still awake one hour later, the subject was to take a second capsule. Similar instructions applied to the second and third hours after lights-off but no capsule was to be taken during the last four hours of darkness i.e. maximum number of capsules to be taken was four. Capsules were refrigerated and had to be taken in complete darkness once lights were off. A double blind procedure was employed with stage B being drug (Melatonin, Sigma, 5mg/capsule) and stage C being placebo (sucrose filled capsule). No capsules were taken on the final dark period at the end of each stage i.e. days 10 and 16.
Rectal temperature was sampled every 12 minutes using a Vitalog PMS 8 portable microcomputer. A diary of life events was kept. These included details of sleep, work, leisure, meals, beverages, urination and defecation. […]

human subjects = conditions: pharmacological doses; cited from earlier work
[2] = test system: circadian rhythms in humans (jet lag); assay type: in vivo, human
Procedure: Subject D Flight from Melbourne→London→Edinburgh→London→Melbourne 23.3.84-2.4.84 The subject, a Clinical Professor who had never taken Melatonin before, was given gelatin capsules containing 5 mg Melatonin and instructed to take one capsule on going to bed in the evening (local time) after arrival at their destination, and to take a further capsule if they awoke in the night.

depressed patients = conditions: cited from earlier work
[3] = test system: circadian rhythms in humans (jet lag, body temperature rhythm); experiment: Example 4: Subject A, round-the-world flight, melatonin with rectal temperature record (Vitalog PMS8); assay type: in vivo, human
Description: Subject A Flight from Melbourne→Geneva→London→Chapel Hill, N.C.→Melbourne 18.9.83-30.9.83. […] During this experiment use was made of a portable Vitalog PMS8 mini computer to record the temperature of Subject A. The Vitalog PMS8 recorded body temperature at ten minute intervals utilizing a rectal temperature probe. […] A discussion of the temperature record follows. During this flight Subject A wore the Vitalog PMS8 mini computer and rectal probe for the continuous recording of their deep body temperature. The equipment malfunctioned after 4 days due to premature battery failure. From 18.9.83- 23.9.83 Subject A kept a detailed daily log of quality and nature of sleep, modd, and alertness according to a technique developed by NASA. […] The dark, dotted regions represent dark periods. The time scale is for Melbourne time no matter where Subject A is identified by one of the letters A, B, C, D or E. Recordings of dark periods B, C and D have been repeated to give continuity to the record. The black arrows identify the times of administration of melatonin.

[4] = test system: circadian rhythms in humans (jet lag); experiment: Example 8: Subject E, flight London-Melbourne; assay type: in vivo, human; conditions: 5 mg at bedtime; for symptoms of jet-lag: Easterly flight London-Melbourne
Description: Subject E Flight from London→Melbourne→London 30.12.83-16.1.84

[5] = test system: circadian rhythms in humans (jet lag); experiment: Example 3: Subject A, flight Melbourne-Stockholm-London-Melbourne, melatonin at local bedtime; assay type: in vivo, human; conditions: 5 mg oral
Description: |Subject A Flight from Melbourne → Stockholm → London |Detail of activity schedule, sleeping times, melatonin adminsitration.

[6] = test system: circadian rhythms in humans (jet lag); experiment: Example 2: Subject A, flight Melbourne-Munster-Melbourne, melatonin at local bedtime; assay type: in vivo, human; conditions: 5 mg oral capsule
Description: |Flight from Melbourne → Munster, W. Germany → Melbourne. |Details of activity schedule, sleeping time, melatonin administration. As in Example 1, Subject A took melatonin packaged in a gelatine capsule.

[7] = test system: hamsters, sheep, ferrets and deer; conditions: physiological doses by mouth, implant or injection; cited from earlier work

COc1ccc2[nH]cc(CCNC(C)=O)c2c1 [melatonin, 5-methoxy-N-acetyltryptamine]
time to fall asleep after lights out (diary, Table 2) ([1]; Subject F, 22.1.84, first complete day after first phase shift, capsule taken 1515): approx. 30 minutes
time by which temperature rhythm was re-established and in phase with the new light-dark cycle ([1]; Subject F, first 8 hour advance of darkness): by the third complete day after the phase shift (day 8)
entrainment of body (rectal) temperature rhythm ([1]; Subject F, first 8 hour phase advance, 5 mg/capsule before lights off, double blind, contrast to placebo): good and accelerated entrainment of the body temperature rhythm; also recorded: phase shifted the rectal temperature rhythm
sleep induction ([1]; Subject F): did not have the same potent sleep induction as reported by other subjects after intercontinental flight
sleep induction ([1]; Subject F, listed as Melatonin): aided sleep induction
effect on sleep (human subjects): induces drowsiness and sleep
sleep after taking melatonin ([2]; Subject D, 5 mg (5+5 mg on Bombay-London leg), listed as Melatonin): did not induce sleep when taken on the outward journey
napping during daytime meeting talks ([2]; Subject D, much less than when using Mogadon): napped minimally
effects of discontinuing melatonin ([2]; human, in vivo): no adverse effects
effect on symptoms of depressed patients (depressed patients): exacerbation of symptoms including florid psychotic episodes
feeling on awakening / during day after melatonin sleep (diary) ([3]; 5 mg oral, listed as Melatonin): feeling excellent; also recorded: feeling drowsy, slight headache; also recorded: feeling fine; also recorded: feeling good; also recorded: Felt fine; also recorded: tired and sleepy and cold; also recorded: Felt very sleepy, but this soon passed
sleep after taking melatonin (diary) ([3]; 5 mg oral, listed as Melatonin): Fell asleep at once; also recorded: Did not fall asleep; also recorded: half an hour; also recorded: slept soundly
time to fall asleep after taking melatonin (diary) ([3]; 5 mg oral, listed as Melatonin): 30 min and 25 min
subjective symptoms of jet-lag (comment) ([3]; 5 mg oral, round-the-world flight in Westerly direction): no subjective symptoms of jet-lag
time of maximal body temperatures ([3]; after arrival in Geneva, rectal probe): around midnight Melbourne time
re-entrainment of body temperature rhythm ([3]; rectal temperature, after arrival in Geneva, FIG. 1): re-entrained extremely rapidly to Geneva time
time of lowest body temperatures ([3]; third and fourth sleep periods in Geneva, rectal probe): around mid-day Melbourne time
sleep after taking melatonin [4]: slept well
symptoms of jet-lag [4]: no signs of jet-lag on the 3rd day
symptoms of jet-lag ([4]; listed as Melatonin): no symptoms of jet-lag; also recorded: appeared to prevent all symptoms of jet-lag
sleep after taking melatonin ([4]; listed as Melatonin): excellent night's sleep
sleep after taking melatonin (diary, comment) [5]: sleep well at an inappropriate time of the day
feeling jet-lagged (comment) ([5]; 8-9 hour time change): At no time during the day either in Sweden or on their return to Melbourne did they feel jet-lagged
feeling on awakening / during day after melatonin sleep (diary) ([5]; listed as Melatonin): Feeling fine; also recorded: Felt good; also recorded: feeling good; also recorded: Felt fine
sleep after taking melatonin (diary, comment) ([5]; listed as Melatonin): fell asleep again; also recorded: good sleep; also recorded: slept well; also recorded: sleep until 2330 hrs; also recorded: asleep 2400 hrs
time to fall asleep after taking melatonin (diary) ([5]; return flight after Singapore): 3/4
sleep after taking melatonin (diary, comment) [6]: sleep well following both Westerly and Easterly flights
symptoms of jet lag (comment) ([6]; 8-hour time zone change): no symptoms of jet lag apart from tiredness on the second day after their return to Melbourne
feeling on awakening / during day after melatonin sleep (diary) ([6]; listed as Melatonin): Felt fresh and rested, much less tired; also recorded: feeling excellent; also recorded: feeling fine; also recorded: feeling good; also recorded: felt fresh and rested; also recorded: Felt tired during the day; also recorded: hangover
sleep after taking melatonin (diary, comment) ([6]; listed as Melatonin): fell asleep; also recorded: slept deeply; also recorded: good sleep; also recorded: slept very well; also recorded: slept well
timing of the annual breeding season [7]: capable of altering the timing of the annual breeding season
